Here are results for 2 compounds from US20200331925A1, “HETEROCYCLIC COMPOUNDS FOR THE TREATMENT OF ABNORMAL CELLULAR PROLIFERATION” (G1 Therapeutics, Inc., priority 2018, published 2020).

Usually IC50 stands for the concentration that inhibits the measured activity by half. Lower therefore signals higher potency.

Holding throughout (type): biochemical
One assay concerns the target CDK4/Cyclin D1 (Homo sapiens, UniProt P11802). Description: CDK4/Cyclin D1 kinase assay (Nanosyn, Caliper microfluidic). To be noted: 12-point dose-response, ATP at Km (200 μM), 3 hr; Table 4. The procedure, abridged: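 Caliper microfluidic mobility-shift read-out, 12-point dose-response in singlicate. 1 nM enzyme, 200 μM ATP (Km), 1 μM peptide substrate, 3 hr incubation; staurosporine as reference.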

For the next assay, the target named is CDK2/Cyclin E (Homo sapiens, UniProt P24941). The assay is described as follows: CDK2/Cyclin E kinase assay (Nanosyn, Caliper microfluidic). To be noted: 12-point dose-response, ATP at Km (100 μM), 3 hr. The procedure, abridged: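 Caliper microfluidic mobility-shift readout of phosphorylation of 1 μM substrate peptide by 0.15 nM enzyme at 100 μM ATP (stated as Km), 3 hr incubation. 12-point dose-response in singlicate, staurosporine as reference.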

A further assay deals with CDK3/Cyclin E (Homo sapiens, UniProt Q00526). The assay is described as follows: CDK3/Cyclin E kinase assay (Nanosyn, Caliper microfluidic). The settings on record: 12-point dose-response, ATP at Km (400 μM), 3 hr. Summed up: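 Caliper microfluidic mobility-shift read-out with 1 nM enzyme, 400 μM ATP (stated as Km) and 1 μM peptide substrate, 3 hr incubation. Compounds run as 12-point dose-response in singlicate.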

For another assay, the target named is CDK6/Cyclin D3 (Homo sapiens, UniProt Q00534). Description: CDK6/Cyclin D3 kinase assay (Nanosyn, Caliper microfluidic). To be noted: 12-point dose-response, ATP at Km (300 μM), 3 hr. The procedure, abridged:
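Caliper microfluidic assay with 2 nM enzyme, 300 μM ATP and 1 μM phosphoacceptor peptide, incubated for 3 hr. Compounds were run as 12-point dose-response curves in singlicate.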

In the next assay the target is CDK5/p25 (Homo sapiens, UniProt Q00535). The assay is described as follows: CDK5/p25 kinase assay (Nanosyn, Caliper microfluidic). To be noted: 12-point dose-response, ATP at Km (20 μM), 3 hr. Summed up:
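Caliper microfluidic mobility-shift assay, 12-point dose-response in singlicate. CDK5/p25 at 0.1 nM with 20 μM ATP (Km) and 1 μM peptide substrate. Incubation 3 hr.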

A further assay concerns the target CDK9/Cyclin T (Homo sapiens, UniProt P50750). Description: CDK9/Cyclin T kinase assay (Nanosyn, Caliper microfluidic). The settings on record: 12-point dose-response, ATP at Km (10 μM), 17 hr; Table 5. Summed up:
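Caliper microfluidic mobility-shift read-out, 12-point dose-response in singlicate at ATP Km with 1 μM peptide substrate; staurosporine reference.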

A further assay has as its target CDK2/Cyclin A (Homo sapiens, UniProt P24941). The assay is described as follows: CDK2/Cyclin A kinase assay (Nanosyn, Caliper microfluidic). To be noted: 12-point dose-response, ATP at Km (50 μM), 3 hr. Summed up:
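Caliper microfluidic mobility-shift read-out; 0.1 nM enzyme, 50 μM ATP (Km), 1 μM peptide substrate, 3 hr incubation. 12-point dose-response in singlicate; staurosporine as reference.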

Another assay addresses CDK5/p35 (Homo sapiens, UniProt Q00535). The assay is described as follows: CDK5/p35 kinase assay (Nanosyn, Caliper microfluidic). The settings on record: 12-point dose-response, ATP at Km (20 μM), 3 hr. The procedure, abridged: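 Microfluidic mobility-shift kinase assay with 0.05 nM CDK5/p35, 20 μM ATP (Km) and 1 μM peptide substrate, 3 hr incubation. Compounds tested as 12-point dose–response in singlicate; staurosporine as reference.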

Another assay has as its target CDK7/Cyclin H (Homo sapiens, UniProt P50613). The assay is described as follows: CDK7/Cyclin H kinase assay (Nanosyn, Caliper microfluidic). To be noted: 12-point dose-response, ATP at Km (50 μM), 17 hr. Summed up:
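Caliper microfluidic mobility-shift assay with 10 nM CDK7/Cyclin H, 50 μM ATP (Km) and 1 μM peptide substrate, incubated 17 hr. Compounds run in 12-point dose-response, singlicate.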

The target in another assay is CDK1/Cyclin B1 (Homo sapiens, UniProt P06493). Description: CDK1/Cyclin B1 kinase assay (Nanosyn, Caliper microfluidic). The settings on record: 12-point dose-response, ATP at Km (40 μM), 3 hr. Summed up: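 Mobility-shift microfluidic kinase assay, 12-point dose-response in singlicate. Conditions: 0.08 nM enzyme, 40 μM ATP (Km), 1 μM peptide substrate, 3 hr incubation; staurosporine as reference.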
Sequence of CDK1/Cyclin B1 (P06493 whole entry): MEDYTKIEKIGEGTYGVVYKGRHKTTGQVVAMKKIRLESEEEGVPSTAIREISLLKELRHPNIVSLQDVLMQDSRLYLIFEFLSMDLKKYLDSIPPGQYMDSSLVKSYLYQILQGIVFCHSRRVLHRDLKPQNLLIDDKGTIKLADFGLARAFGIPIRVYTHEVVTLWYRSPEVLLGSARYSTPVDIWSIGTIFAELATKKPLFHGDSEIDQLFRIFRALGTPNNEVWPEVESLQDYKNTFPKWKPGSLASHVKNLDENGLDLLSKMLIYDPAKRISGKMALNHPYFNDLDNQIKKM
Sequence of CDK1/Cyclin B1 (P14635 whole entry partner): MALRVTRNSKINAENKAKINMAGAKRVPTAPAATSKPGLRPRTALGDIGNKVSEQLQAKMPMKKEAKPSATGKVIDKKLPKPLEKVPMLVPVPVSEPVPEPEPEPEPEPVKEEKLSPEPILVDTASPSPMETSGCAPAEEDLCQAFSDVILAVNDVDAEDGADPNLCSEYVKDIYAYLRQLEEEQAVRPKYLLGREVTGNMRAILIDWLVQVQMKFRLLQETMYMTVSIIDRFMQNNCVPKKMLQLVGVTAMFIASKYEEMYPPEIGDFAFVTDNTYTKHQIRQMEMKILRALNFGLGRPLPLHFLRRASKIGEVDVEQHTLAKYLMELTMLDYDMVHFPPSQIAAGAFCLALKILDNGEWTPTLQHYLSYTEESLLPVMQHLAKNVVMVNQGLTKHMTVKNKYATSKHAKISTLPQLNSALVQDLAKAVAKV

Sequence of CDK7/Cyclin H (P50613 whole entry): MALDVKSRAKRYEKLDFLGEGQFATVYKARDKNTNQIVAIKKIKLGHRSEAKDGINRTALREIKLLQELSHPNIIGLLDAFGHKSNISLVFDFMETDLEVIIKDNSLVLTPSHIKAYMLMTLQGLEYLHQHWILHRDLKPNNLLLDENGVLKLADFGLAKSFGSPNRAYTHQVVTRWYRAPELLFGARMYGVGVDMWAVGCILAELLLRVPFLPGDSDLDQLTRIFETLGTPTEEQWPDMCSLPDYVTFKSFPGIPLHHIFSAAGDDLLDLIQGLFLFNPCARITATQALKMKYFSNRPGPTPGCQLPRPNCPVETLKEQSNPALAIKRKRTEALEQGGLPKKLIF
Sequence of CDK7/Cyclin H (P51946 whole entry partner): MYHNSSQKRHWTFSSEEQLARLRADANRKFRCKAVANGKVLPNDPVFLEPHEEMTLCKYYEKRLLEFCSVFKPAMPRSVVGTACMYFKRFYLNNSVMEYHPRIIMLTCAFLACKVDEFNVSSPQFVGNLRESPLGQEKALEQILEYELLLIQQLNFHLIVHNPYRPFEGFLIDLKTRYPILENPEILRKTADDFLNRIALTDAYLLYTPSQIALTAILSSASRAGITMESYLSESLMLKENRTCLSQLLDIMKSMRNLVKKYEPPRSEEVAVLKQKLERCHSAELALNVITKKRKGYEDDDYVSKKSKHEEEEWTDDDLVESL
Sequence of CDK7/Cyclin H (P51948 whole entry partner): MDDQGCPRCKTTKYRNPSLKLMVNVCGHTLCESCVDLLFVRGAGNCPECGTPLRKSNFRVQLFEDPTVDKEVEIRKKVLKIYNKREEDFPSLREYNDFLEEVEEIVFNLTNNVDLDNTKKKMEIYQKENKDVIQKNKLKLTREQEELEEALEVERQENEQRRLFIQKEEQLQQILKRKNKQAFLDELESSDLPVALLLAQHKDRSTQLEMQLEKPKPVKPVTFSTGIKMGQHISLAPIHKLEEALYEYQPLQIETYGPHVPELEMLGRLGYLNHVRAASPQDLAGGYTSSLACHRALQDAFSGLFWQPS
Sequence of CDK4/Cyclin D1 (P11802 whole entry): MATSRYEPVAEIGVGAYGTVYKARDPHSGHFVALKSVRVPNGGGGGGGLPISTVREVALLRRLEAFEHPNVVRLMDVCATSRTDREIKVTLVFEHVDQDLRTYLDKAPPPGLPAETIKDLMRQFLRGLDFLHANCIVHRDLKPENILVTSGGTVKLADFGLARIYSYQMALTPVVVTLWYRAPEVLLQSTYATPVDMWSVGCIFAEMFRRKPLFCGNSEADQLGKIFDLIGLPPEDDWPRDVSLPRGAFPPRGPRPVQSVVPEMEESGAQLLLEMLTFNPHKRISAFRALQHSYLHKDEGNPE
Sequence of CDK4/Cyclin D1 (P24385 whole entry partner): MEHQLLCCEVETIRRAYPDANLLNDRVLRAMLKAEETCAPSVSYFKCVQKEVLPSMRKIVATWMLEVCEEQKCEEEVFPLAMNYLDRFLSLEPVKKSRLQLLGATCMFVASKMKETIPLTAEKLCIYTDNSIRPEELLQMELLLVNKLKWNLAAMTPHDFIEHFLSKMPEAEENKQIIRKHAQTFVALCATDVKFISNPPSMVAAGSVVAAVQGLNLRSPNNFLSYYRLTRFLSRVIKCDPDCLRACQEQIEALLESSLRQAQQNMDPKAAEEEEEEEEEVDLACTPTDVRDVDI
Sequence of CDK9/Cyclin T (P50750 whole entry): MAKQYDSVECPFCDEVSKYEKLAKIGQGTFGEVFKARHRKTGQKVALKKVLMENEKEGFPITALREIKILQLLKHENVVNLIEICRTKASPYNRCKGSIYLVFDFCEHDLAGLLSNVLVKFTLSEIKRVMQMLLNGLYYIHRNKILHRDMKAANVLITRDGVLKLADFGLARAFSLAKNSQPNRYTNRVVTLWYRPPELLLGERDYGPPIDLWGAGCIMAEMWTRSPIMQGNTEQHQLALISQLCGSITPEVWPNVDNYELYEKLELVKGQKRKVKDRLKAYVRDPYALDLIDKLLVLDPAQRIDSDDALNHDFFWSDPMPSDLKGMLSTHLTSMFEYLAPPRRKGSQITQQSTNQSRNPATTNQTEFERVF
Sequence of CDK9/Cyclin T (O60563 whole entry partner): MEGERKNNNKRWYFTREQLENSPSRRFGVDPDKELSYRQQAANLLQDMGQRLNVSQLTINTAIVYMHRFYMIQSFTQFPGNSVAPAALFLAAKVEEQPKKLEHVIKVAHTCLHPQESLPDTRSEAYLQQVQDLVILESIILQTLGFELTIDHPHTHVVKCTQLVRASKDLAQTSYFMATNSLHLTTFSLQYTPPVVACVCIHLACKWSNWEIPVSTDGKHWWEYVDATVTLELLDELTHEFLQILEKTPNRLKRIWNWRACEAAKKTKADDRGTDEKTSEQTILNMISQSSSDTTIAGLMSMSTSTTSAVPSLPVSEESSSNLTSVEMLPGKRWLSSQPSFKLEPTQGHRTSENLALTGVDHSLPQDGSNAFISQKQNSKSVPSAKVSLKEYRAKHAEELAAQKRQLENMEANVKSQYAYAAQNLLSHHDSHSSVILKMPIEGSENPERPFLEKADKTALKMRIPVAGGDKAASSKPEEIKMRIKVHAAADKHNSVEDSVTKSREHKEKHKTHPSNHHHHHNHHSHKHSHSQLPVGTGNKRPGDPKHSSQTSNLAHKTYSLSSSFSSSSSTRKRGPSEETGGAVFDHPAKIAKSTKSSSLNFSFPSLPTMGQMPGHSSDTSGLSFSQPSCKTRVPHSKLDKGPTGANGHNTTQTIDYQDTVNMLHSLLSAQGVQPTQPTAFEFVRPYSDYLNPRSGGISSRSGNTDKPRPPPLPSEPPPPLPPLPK
Sequence of CDK6/Cyclin D3 (Q00534 whole entry): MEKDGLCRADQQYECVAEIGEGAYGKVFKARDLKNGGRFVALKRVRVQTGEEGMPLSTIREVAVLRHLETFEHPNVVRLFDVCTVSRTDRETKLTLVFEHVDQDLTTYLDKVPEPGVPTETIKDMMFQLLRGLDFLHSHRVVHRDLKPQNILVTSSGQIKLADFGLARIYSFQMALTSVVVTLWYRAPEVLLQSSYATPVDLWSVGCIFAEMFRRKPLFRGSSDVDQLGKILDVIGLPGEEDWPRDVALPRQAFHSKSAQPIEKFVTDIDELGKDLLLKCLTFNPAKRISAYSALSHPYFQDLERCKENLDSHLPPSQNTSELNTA
Sequence of CDK6/Cyclin D3 (P30281 whole entry partner): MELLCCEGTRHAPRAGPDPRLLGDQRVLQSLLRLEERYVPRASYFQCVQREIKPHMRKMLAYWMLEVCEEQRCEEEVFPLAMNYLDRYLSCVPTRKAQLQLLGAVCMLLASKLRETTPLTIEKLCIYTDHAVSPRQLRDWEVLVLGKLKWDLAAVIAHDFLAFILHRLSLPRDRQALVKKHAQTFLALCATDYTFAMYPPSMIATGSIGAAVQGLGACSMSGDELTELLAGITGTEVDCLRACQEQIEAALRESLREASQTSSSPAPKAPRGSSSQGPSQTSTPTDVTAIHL
Sequence of CDK5/p25 (Q00535 whole entry): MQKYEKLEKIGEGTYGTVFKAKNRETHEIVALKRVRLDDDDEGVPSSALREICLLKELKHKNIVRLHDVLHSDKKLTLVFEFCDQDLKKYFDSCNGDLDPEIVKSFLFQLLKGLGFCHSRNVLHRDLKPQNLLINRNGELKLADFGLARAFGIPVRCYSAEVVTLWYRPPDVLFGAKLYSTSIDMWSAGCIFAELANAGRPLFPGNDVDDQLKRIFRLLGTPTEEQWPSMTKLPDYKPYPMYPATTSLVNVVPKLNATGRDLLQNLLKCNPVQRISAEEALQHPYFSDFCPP
Sequence of CDK5/p25 (Q15078 99-307 partner limits assumed): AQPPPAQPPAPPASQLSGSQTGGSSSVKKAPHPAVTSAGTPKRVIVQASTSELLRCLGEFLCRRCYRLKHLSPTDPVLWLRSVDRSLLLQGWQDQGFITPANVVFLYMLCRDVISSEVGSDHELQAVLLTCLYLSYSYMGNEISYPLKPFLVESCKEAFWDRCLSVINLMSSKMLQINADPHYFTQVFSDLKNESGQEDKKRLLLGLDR

For `C[C@H]1CC[C@H](Nc2ncc3cc4n(c3n2)C2(CCCCC2)CN=C4)CC1` [Compound 54, N-((1r,4r)-4-methylcyclohexyl)-8′H-spiro[cyclohexane-1,9′-pyrazino[1′,2′:1,5]pyrrolo[2,3-d]pyrimidin]-2′-amine], the IC50 at CDK4/Cyclin D1 is 670 nM; against CDK2/Cyclin E, 260 nM; at CDK3/Cyclin E, 640 nM; against CDK6/Cyclin D3, 2000 nM; on CDK5/p25, 660 nM; against CDK9/Cyclin T, 600 nM. Moreover, the IC50 was found to be 420 nM at CDK2/Cyclin A, 740 nM against CDK5/p35, 3600 nM on CDK7/Cyclin H and 1700 nM on CDK1/Cyclin B1.

On to `N[C@H]1CC[C@@H](Nc2ncc3cc4n(c3n2)C2(CCCCC2)CN=C4)CC1` [Compound 55, (1s,4s)-N^1-(8′H-spiro[cyclohexane-1,9′-pyrazino[1′,2′:1,5]pyrrolo[2,3-d]pyrimidin]-2′-yl)cyclohexane-1,4-diamine], for which the IC50 on CDK4/Cyclin D1 was 92 nM; against CDK2/Cyclin E it was 330 nM; on CDK3/Cyclin E, 460 nM; on CDK6/Cyclin D3, 680 nM; against CDK5/p25, 2000 nM; against CDK9/Cyclin T, 22 nM. The IC50 at CDK2/Cyclin A amounted to 810 nM; against CDK5/p35, 1700 nM; against CDK7/Cyclin H it was 120 nM; against CDK1/Cyclin B1, 1400 nM.
